Where two headings read alike, the source gives them in different places.
How the values were obtained:
[1] = target: T1, full length recombinant Pim-1 protein (Homo sapiens, UniProt P11309); assay: Pim-1 enzyme assay (HTRF, phosphorylation of biotinylated-BAD (S112) peptide); format: biochemical; conditions: enzyme assay, Pim-1; read-out: Pim_1_IC50
T1 construct: by full length recombinant Pim-1, Pim-2, or Pim-3 protein; hexahistidine tag followed by a thrombin cleavage site (N); made in house; host or cells: Sf9 (baculovirus) or E. coli (pET28)
T1 sequence (P11309 whole entry): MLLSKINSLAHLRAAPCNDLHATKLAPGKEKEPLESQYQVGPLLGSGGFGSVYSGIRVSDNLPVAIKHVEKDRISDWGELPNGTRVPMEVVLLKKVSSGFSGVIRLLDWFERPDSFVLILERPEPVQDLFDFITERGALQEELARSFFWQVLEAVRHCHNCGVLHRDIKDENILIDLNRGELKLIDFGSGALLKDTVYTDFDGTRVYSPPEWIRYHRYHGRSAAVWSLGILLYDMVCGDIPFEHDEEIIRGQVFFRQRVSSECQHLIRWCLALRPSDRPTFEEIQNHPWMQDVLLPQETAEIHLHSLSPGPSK
Procedure, shortened: (§1)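 HTRF read-out: Eu-labelled anti-phospho-BAD (S112) antibody plus streptavidin-APC detect phosphorylated biotin-BAD peptide. Enzymes were full-length recombinant human Pim-1 and Pim-2; buffer 60 mM Hepes pH 7.0, 0.05% BSA, 2 mM DTT; reactions quenched with 3 mM EDTA. Percent-of-control data fitted to a 4-parameter logistic for IC50.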

[2] = target: T2, full length recombinant Pim-2 protein (Homo sapiens, UniProt Q9P1W9); assay: Pim-2 enzyme assay (HTRF, phosphorylation of biotinylated-BAD (S112) peptide); format: biochemical; conditions: enzyme assay, Pim-2; read-out: Pim2_IC50
T2 construct: by full length recombinant Pim-1, Pim-2, or Pim-3 protein; hexahistidine tag followed by a thrombin cleavage site (N); made in house; host or cells: Sf9 (baculovirus) or E. coli (pET28)
T2 sequence (Q9P1W9 whole entry): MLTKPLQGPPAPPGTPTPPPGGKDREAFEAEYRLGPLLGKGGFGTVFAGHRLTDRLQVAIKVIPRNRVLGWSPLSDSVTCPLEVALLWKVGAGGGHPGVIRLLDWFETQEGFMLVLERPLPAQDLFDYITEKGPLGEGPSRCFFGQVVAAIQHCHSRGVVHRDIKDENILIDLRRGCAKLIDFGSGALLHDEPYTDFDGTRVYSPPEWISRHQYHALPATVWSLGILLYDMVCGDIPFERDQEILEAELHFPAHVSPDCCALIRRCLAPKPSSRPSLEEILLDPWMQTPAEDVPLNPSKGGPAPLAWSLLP
Procedure, shortened: as §1

[3] = target: T3, full length recombinant Pim-3 protein (Homo sapiens, UniProt Q86V86); assay: Pim-3 enzyme assay (HTRF, phosphorylation of biotinylated-BAD (S112) peptide); format: biochemical; conditions: read-out: Pim3 IC50
T3 construct: by full length recombinant Pim-1, Pim-2, or Pim-3 protein; purchased Millipore (UK)
Procedure, shortened: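 HTRF read-out, streptavidin-APC plus Eu-labelled anti-phospho-BAD (S112) antibody, measures BAD peptide phosphorylation by full-length recombinant Pim-3. Buffer: 60 mM Hepes pH 7.0, 2 mM DTT, 0.05% BSA; EDTA (3 mM) stop. Percent of control per well, IC50 by 4-parameter logistic fit.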

[4] = target: T4, Pim-1 stably transfected into the U2OS human osteogenic sarcoma line (Homo sapiens, UniProt P11309); assay: Pim cell assay, phospho-BAD normalized against total BAD, U2OS stably transfected with Pim-1; format: cell-based; conditions: read-out: Pim1_Cell_IC50
T4 construct: expressed in transfected cells; host or cells: U2OS human osteogenic sarcoma line
T4 sequence (P11309 whole entry): as the sequence (P11309 whole entry) above
Procedure, shortened: (§2)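 Read-out is phospho-BAD relative to total BAD, by MSD electrochemiluminescence on lysates, expressed as % phosphoprotein = (2×phospho)/(phospho+total)×100. Engineered U2OS lines carrying stably transfected Pim-1 or Pim-2 received 10-point compound dilutions at 0.3% final DMSO after overnight culture at 37 °C; DMSO-only wells served as high control.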

[5] = target: T5, Pim-2 stably transfected into the U2OS human osteogenic sarcoma line (Homo sapiens, UniProt Q9P1W9); assay: Pim cell assay, phospho-BAD normalized against total BAD, U2OS stably transfected with Pim-2; format: cell-based; conditions: read-out: Pim2_Cell_IC50; further: high dose 31.6 µM
T5 construct: expressed in transfected cells; host or cells: U2OS human osteogenic sarcoma line
T5 sequence (Q9P1W9 whole entry): as the sequence (Q9P1W9 whole entry) above
Procedure, shortened: as §2

[6] = U2OS cells stably transfected with Pim-1, phospho-BAD, high dose […]
[7] = U2OS cells stably transfected with Pim-2, phospho-BAD, high dose […]

Structure (SMILES)	IC50 [1]	IC50 [2]	IC50 [3]	IC50 [4, 6]	IC50 [5, 7]	IC50 [4]	IC50 [5]
NC1CCN(c2cncc(-c3n[nH]c4ccc(-c5cncnc5)cc34)n2)CC1 [Example 87, 1-(6-(5-(5-pyrimidinyl)-1H-indazol-3-yl)-2-pyrazinyl)-4-piperidinamine]	12 nM	43 nM	5 nM	569 nM	> 31600 nM		
NC1CCN(c2cncc(-c3n[nH]c4ccc(-c5ccccn5)cc34)n2)CC1 [Example 88, 1-(6-(5-(2-pyridinyl)-1H-indazol-3-yl)-2-pyrazinyl)-4-piperidinamine]	48 nM	685 nM	57 nM	1190 nM	> 31600 nM		
NC1CCN(c2cncc(-c3n[nH]c4ccc(N5CCCCC5)cc34)n2)CC1 [Example 90, 1-(6-(5-(1-piperidinyl)-1H-indazol-3-yl)-2-pyrazinyl)-4-piperidinamine]	23 nM	196 nM	40 nM	747 nM	> 31600 nM		
CN1CCN(c2ccc3[nH]nc(-c4cncc(N5CCC(N)CC5)n4)c3c2)C1=O [Example 92, 1-(3-(6-(4-amino-1-piperidinyl)-2-pyrazinyl)-1H-indazol-5-yl)-3-methyl-2-imidazolidinone]	9 nM	57 nM	5 nM			2230 nM	> 31600 nM
CC(C)(C)C(=O)Nc1cccc(-c2ccc3[nH]nc(-c4cncc(N5CCC(N)CC5)n4)c3c2)n1 [Example 93, N-(6-(3-(6-(4-amino-1-piperidinyl)-2-pyrazinyl)-1H-indazol-5-yl)-2-pyridinyl)-2,2-dimethylpropanamide]	13 nM	> 1000 nM	82 nM	487 nM	> 31600 nM		
NC1CCN(c2cncc(-c3n[nH]c4ccc(-c5ccc6cc[nH]c6n5)cc34)n2)CC1 [Example 95, 1-(6-(5-(1H-pyrrolo[2,3-b]pyridin-6-yl)-1H-indazol-3-yl)-2-pyrazinyl)-4-piperidinamine]	5 nM	82 nM	3 nM	384 nM	> 31600 nM		
Nc1ncc(-c2ccc3[nH]nc(-c4cncc(N5CCC(N)CC5)n4)c3c2)cn1 [Example 97, 5-(3-(6-(4-amino-1-piperidinyl)-2-pyrazinyl)-1H-indazol-5-yl)-2-pyrimidinamine]	3 nM	27 nM	1 nM	3030 nM	> 31600 nM		
NC1CCN(c2cncc(-c3n[nH]c4ccc(-c5cn6ccnc6cn5)cc34)n2)CC1 [Example 99, 1-(6-(5-imidazo[1,2-a]pyrazin-6-yl-1H-indazol-3-yl)-2-pyrazinyl)-4-piperidinamine]	3 nM	57 nM	5 nM	4720 nM	> 31600 nM		
Nc1cc(-c2ccc3[nH]nc(-c4cncc(N5CCC(N)CC5)n4)c3c2)ccn1 [Example 100, 4-(3-(6-(4-amino-1-piperidinyl)-2-pyrazinyl)-1H-indazol-5-yl)-2-pyridinamine]	1 nM	18 nM	2 nM	1250 nM	> 31600 nM		
COc1ccc2c(-c3ccc4[nH]nc(-c5cncc(N6CCC(N)CC6)n5)c4c3)ccnc2c1 [Example 101, 1-(6-(5-(7-methoxy-4-quinolinyl)-1H-indazol-3-yl)-2-pyrazinyl)-4-piperidinamine]	4 nM	55 nM	10 nM	269 nM	> 31600 nM		
NC1CCN(c2cncc(-c3n[nH]c4ccc(-c5ccncc5)cc34)n2)CC1 [Example 102, 1-(6-(5-(4-pyridinyl)-1H-indazol-3-yl)-2-pyrazinyl)-4-piperidinamine]	2 nM	20 nM	3 nM	199 nM	5000 nM		
COc1cncc(-c2ccc3[nH]nc(-c4cncc(O[C@@H]5CCCNC5)n4)c3c2)c1 [Example 114, 5-(5-methoxy-3-pyridinyl)-3-(6-((3R)-3-piperidinyloxy)-2-pyrazinyl)-1H-indazole]	6 nM	77 nM	12 nM	172 nM	8500 nM		
Fc1cncc(-c2ccc3[nH]nc(-c4cncc(O[C@@H]5CCCNC5)n4)c3c2)c1 [Example 115, 5-(5-fluoro-3-pyridinyl)-3-(6-((3R)-3-piperidinyloxy)-2-pyrazinyl)-1H-indazole]	33 nM	155 nM	20 nM	958 nM	> 31600 nM		
c1cc2cc(-c3ccc4[nH]nc(-c5cncc(O[C@@H]6CCCNC6)n5)c4c3)cnc2[nH]1 [Example 121, 3-(6-((3R)-3-piperidinyloxy)-2-pyrazinyl)-5-(1H-pyrrolo[2,3-b]pyridin-5-yl)-1H-indazole]	3 nM	23 nM	5 nM	157 nM	3010 nM		
CC(C)NC(=O)c1ccc(F)c(-c2ccc3[nH]nc(-c4cncc(O[C@@H]5CCCNC5)n4)c3c2)c1 [Example 122, 4-fluoro-N-(1-methylethyl)-3-(3-(6-((3R)-3-piperidinyloxy)-2-pyrazinyl)-1H-indazol-5-yl)benzamide]	16 nM	14 nM	20 nM	287 nM	1850 nM		
CC(C)c1ccnc(-c2ccc3[nH]nc(-c4cncc(O[C@@H]5CCCNC5)n4)c3c2)n1 [Example 126, 5-(4-(1-methylethyl)-2-pyrimidinyl)-3-(6-((3R)-3-piperidinyloxy)-2-pyrazinyl)-1H-indazole]	13 nM	161 nM	6 nM	563 nM	> 31600 nM		
c1cc(C2CC2)nc(-c2ccc3[nH]nc(-c4cncc(O[C@@H]5CCCNC5)n4)c3c2)n1 [Example 127, 5-(4-cyclopropyl-2-pyrimidinyl)-3-(6-((3R)-3-piperidinyloxy)-2-pyrazinyl)-1H-indazole]	13 nM	67 nM	6 nM	1020 nM	> 31600 nM		
CN1CCOc2cc(-c3ccc4[nH]nc(-c5cncc(O[C@@H]6CCCNC6)n5)c4c3)cnc21 [Example 130, 4-methyl-7-(3-(6-((3R)-3-piperidinyloxy)-2-pyrazinyl)-1H-indazol-5-yl)-3,4-dihydro-2H-pyrido[3,2-b][1,4]oxazine]	7 nM	25 nM	8 nM	208 nM	9240 nM		
COc1cccc(-c2ccc3[nH]nc(-c4cncc(O[C@@H]5CCCNC5)n4)c3c2)c1F [Example 131, 5-(2-fluoro-3-methoxyphenyl)-3-(6-((3R)-3-piperidinyloxy)-2-pyrazinyl)-1H-indazole]	2 nM	15 nM	5 nM	151 nM	8910 nM		
O=C(NC1CC1)c1cccc(-c2ccc3[nH]nc(-c4cncc(O[C@@H]5CCCNC5)n4)c3c2)c1 [Example 132, N-cyclopropyl-3-(3-(6-((3R)-3-piperidinyloxy)-2-pyrazinyl)-1H-indazol-5-yl)benzamide]	8 nM	14 nM	14 nM	245 nM	3050 nM		
Fc1ccccc1-c1ccc2[nH]nc(-c3cncc(O[C@@H]4CCCNC4)n3)c2c1 [Example 133, 5-(2-fluorophenyl)-3-(6-((3R)-3-piperidinyloxy)-2-pyrazinyl)-1H-indazole]	5 nM	17 nM	6 nM	435 nM	7840 nM		
c1cn2cc(-c3ccc4[nH]nc(-c5cncc(O[C@@H]6CCCNC6)n5)c4c3)ncc2n1 [Example 138, 6-(3-(6-((3R)-3-piperidinyloxy)-2-pyrazinyl)-1H-indazol-5-yl)imidazo[1,2-a]pyrazine]	5 nM	185 nM	14 nM	921 nM	> 31600 nM		
O=C(NC1CC1)c1ccc(F)c(-c2ccc3[nH]nc(-c4cncc(O[C@@H]5CCCNC5)n4)c3c2)c1 [Example 139, N-cyclopropyl-4-fluoro-3-(3-(6-((3R)-3-piperidinyloxy)-2-pyrazinyl)-1H-indazol-5-yl)benzamide]	13 nM	13 nM	12 nM	454 nM	3780 nM		

— US9090593B2, “Bicyclic compounds as Pim inhibitors” (AMGEN INC., priority 2010, dated 2015)
